Measurements reported in PubChem BioAssay (NCI).
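Exposure lasted 48 hours, with cells grown in 96-well plates and compounds tested at five concentrations. GI50 marks 50% less growth. At the TGI there is no net growth.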

Experiments:
Assay in all cases: inhibition of tumour cell growth, NCI panel, 48 h
[1] = test system: UO-31 renal
[2] = test system: SK-MEL-2 melanoma
[3] = test system: MCF7 breast
[4] = test system: M14 melanoma
[5] = test system: 786-0 renal
[6] = test system: NCI/ADR-RES ovarian
[7] = test system: PC-3 prostate
[8] = test system: SF-539 CNS
[9] = test system: A498 renal
[10] = test system: BT-549 breast

| SMILES | GI50 [1] | TGI [1] | GI50 [2] | TGI [2] | GI50 [3] | TGI [3] | GI50 [4] | TGI [4] | GI50 [5] | TGI [5] | GI50 [6] | TGI [6] | GI50 [7] | TGI [7] | GI50 [8] | TGI [8] | GI50 [9] | TGI [9] | GI50 [10] | TGI [10] |
| --- | --- | --- | --- | --- | --- | --- | --- | --- | --- | --- | --- | --- | --- | --- | --- | --- | --- | --- | --- | --- |
| COc1cc(/C=C/c2cc(/C=C/c3ccc(O)c(OC)c3)[nH]c(=O)n2)ccc1O | 3.71 µM | 58.6 µM | 2.88 µM | 6.7 µM | 2.96 µM | 11.4 µM | 3.12 µM | 15.4 µM | 2.73 µM | 33 µM | 16.7 µM | > 100 µM | 3.2 µM | 18.6 µM | 3.87 µM | > 100 µM | 3.11 µM | 25.2 µM | 2.06 µM | 8.08 µM |
| N#CC1CCc2c(c(-c3cn[nH]c3C(F)(F)F)nc3c(F)cc4[nH]ncc4c23)C1 (stereo not given) | 9.64 µM | 36.6 µM | 2.4 µM | 6.78 µM | 3.5 µM | 47.4 µM | 3.88 µM | 21.7 µM | 10.9 µM | 59.4 µM | > 100 µM | > 100 µM | 9.19 µM | > 100 µM | 3.43 µM | 15.4 µM | 2.09 µM | 6.75 µM | 3.16 µM | 12.9 µM |
| CC(C)(O)CCC(O)C(C)(O)C1CCC2(O)C3=CC(=O)C4(O)CC(O)C(O)CC4(C)C3CCC12C (stereo not given) (tested in a mixture with another compound) |  | > 100 µM |  | > 100 µM |  | > 100 µM |  | > 100 µM |  | > 100 µM |  | > 100 µM |  | > 100 µM |  | > 100 µM |  | > 100 µM |  | > 100 µM |
| COc1ccc(S(=O)(=O)n2c3ccccc3n3ncc(-c4nnc(C)o4)c23)cc1 | 0.474 µM | 21.7 µM | 0.815 µM | 82.1 µM | 0.397 µM | > 69.8 µM | 0.373 µM | 18.7 µM | 0.688 µM | > 71.3 µM | 0.391 µM | > 48.1 µM | 0.478 µM | > 100 µM | 0.361 µM | 7.92 µM | 0.298 µM | 1.9 µM | 0.516 µM | 20 µM |
| COc1cc(N=Nc2cccc(S(N)(=O)=O)c2)c2ccccc2c1N |  | 30.6 µM |  | 5.13 µM |  | 20.5 µM |  | 3.43 µM |  | 26.9 µM |  | > 68.5 µM |  | 23.9 µM |  | 9.19 µM |  | 34.7 µM |  | 20.7 µM |
| C#CCOc1cccc(Nc2ncc3ncn(C4CCN(C(=O)CCl)C4)c3n2)c1 (stereo not given) | 37.4 µM | > 62.5 µM | > 62.5 µM | > 62.5 µM | 59.2 µM | > 62.5 µM | > 62.5 µM | > 62.5 µM | > 62.5 µM | > 62.5 µM | > 62.5 µM | > 62.5 µM | > 62.5 µM | > 62.5 µM | > 62.5 µM | > 62.5 µM | > 62.5 µM | > 62.5 µM | 18.3 µM | > 62.5 µM |
| O[C@H](CN1CC1)[C@@H](O)CN1CC1 | 2.65 µM | 13.1 µM | 41 µM | > 100 µM | 1.84 µM | > 100 µM | 3.77 µM | 22.3 µM | 3.42 µM | 13.5 µM | 2.8 µM | 53.1 µM | 15.1 µM | > 100 µM | 2.58 µM | 15.5 µM | 5.24 µM | 21.7 µM | 12.6 µM | 60.9 µM |
| O=C(Nc1cccc([N+](=O)[O-])c1)c1cc2ccccc2cc1O | 1.25 µM | 7.46 µM | 0.876 µM | 2.83 µM | 1.36 µM | 6.21 µM | 1.58 µM | 6.68 µM | 1.28 µM | 4.74 µM | 1.76 µM | 6.54 µM | 1.49 µM | > 30.5 µM | 1.57 µM | 8.84 µM | 1.41 µM | 6.19 µM | 1.55 µM | 5.39 µM |
| O=C(Nc1ccc(-c2ccnc(Nc3ccc(N4CCOCC4)cc3)n2)cc1)C1CCCN1 (stereo not given) | 4.06 µM | 24.2 µM | 15.2 µM | 35.8 µM | 4.51 µM | 21.4 µM | 7.23 µM | 22.8 µM | 4.94 µM | 20.2 µM | 9.49 µM | 44.5 µM | 1.79 µM | 31.9 µM | 2.33 µM | 14.2 µM | 6.4 µM | 17.9 µM | 8.76 µM | 23 µM |
| COc1ccc(/C=C/c2cnc3ccccc3n2)cc1OC |  | > 100 µM |  | > 100 µM |  | > 100 µM |  | > 100 µM |  | > 100 µM |  | > 100 µM |  | > 100 µM |  | > 100 µM |  | > 100 µM |  | > 100 µM |
| Cc1cc(Cl)ccc1NC(=O)NC(C)(C)COC(=O)Nc1cccc(Cl)c1 | 7.11 µM | 80.7 µM | 8.08 µM | 34.1 µM | 2.49 µM | 24.4 µM | 8.38 µM | > 100 µM | 24.2 µM | > 100 µM | 4.12 µM | > 100 µM | 3.66 µM | 52.1 µM | 9.4 µM | > 100 µM | 2.82 µM | 21.8 µM | 21.4 µM | > 100 µM |
| CC(C)N(Cc1ccccc1)S(=O)(=O)c1n[nH]c(C(C)(C)C)n1 |  | > 100 µM |  | > 100 µM |  | > 100 µM |  | > 100 µM |  | > 100 µM |  | > 100 µM |  | > 100 µM |  | > 100 µM |  | > 100 µM |  | > 100 µM |
| Cc1cc(O)c2c(c1)C(=O)C(c1c(C)cc3c(c1O)C(=O)C1OC1C3=O)=CC2=O (stereo not given) |  | 3.77 µM |  | 24.6 µM |  | 12.1 µM |  | 8.12 µM |  | 4.16 µM |  | > 23.1 µM |  | 25.1 µM |  | 10.2 µM |  | 14.3 µM |  | 6.32 µM |
| N#C/C(=C\c1cccnc1)c1nc2ccccc2o1 | 43.1 µM | > 100 µM | > 100 µM | > 100 µM | > 100 µM | > 100 µM | > 100 µM | > 100 µM | > 100 µM | > 100 µM | > 100 µM | > 100 µM | > 100 µM | > 100 µM | > 100 µM | > 100 µM | 66.4 µM | > 100 µM | > 100 µM | > 100 µM |
